# Data: ChEMBL document CHEMBL2429768, “Eco-friendly synthesis and antimicrobial activities of substituted-5-(1H-indol-3-yl)methylene)-2,2-dimethyl-1,3-dioxane-4,6-dione derivatives” (2013)
# Experiments:
# Format in all cases: functional
# Aspergillus niger [1] = test: Antifungal activity against Aspergillus niger at 50 ug/ml after 72 hrs by agar well diffusion method; conditions: read-out: DIZ
# Fusarium oxysporum [2] = test: Antifungal activity against Fusarium oxysporum at 500 ug/ml after 72 hrs by agar well diffusion method; conditions: read-out: DIZ
# Fusarium oxysporum [3] = test: Antifungal activity against Fusarium oxysporum at 300 ug/ml after 72 hrs by agar well diffusion method; conditions: read-out: DIZ
# Fusarium oxysporum [4] = test: Antifungal activity against Fusarium oxysporum at 200 ug/ml after 72 hrs by agar well diffusion method; conditions: read-out: DIZ
# Fusarium oxysporum [5] = test: Antifungal activity against Fusarium oxysporum at 100 ug/ml after 72 hrs by agar well diffusion method; conditions: read-out: DIZ
# Fusarium oxysporum [6] = test: Antifungal activity against Fusarium oxysporum at 50 ug/ml after 72 hrs by agar well diffusion method; conditions: read-out: DIZ
# Rhizoctonia solani [7] = test: Antifungal activity against Rhizoctonia solani at 500 ug/ml after 72 hrs by agar well diffusion method; conditions: read-out: DIZ
# Rhizoctonia solani [8] = test: Antifungal activity against Rhizoctonia solani at 300 ug/ml after 72 hrs by agar well diffusion method; conditions: read-out: DIZ
# Rhizoctonia solani [9] = test: Antifungal activity against Rhizoctonia solani at 200 ug/ml after 72 hrs by agar well diffusion method; conditions: read-out: DIZ
# Rhizoctonia solani [10] = test: Antifungal activity against Rhizoctonia solani at 100 ug/ml after 72 hrs by agar well diffusion method; conditions: read-out: DIZ
# Rhizoctonia solani [11] = test: Antifungal activity against Rhizoctonia solani at 50 ug/ml after 72 hrs by agar well diffusion method; conditions: read-out: DIZ
# Bacillus subtilis [12] = test: Antibacterial activity against Bacillus subtilis at 500 ug/ml after 24 hrs by agar well diffusion method; conditions: read-out: DIZ
# Bacillus subtilis [13] = test: Antibacterial activity against Bacillus subtilis at 300 ug/ml after 24 hrs by agar well diffusion method; conditions: read-out: DIZ
# Bacillus subtilis [14] = test: Antibacterial activity against Bacillus subtilis at 200 ug/ml after 24 hrs by agar well diffusion method; conditions: read-out: DIZ
# Bacillus subtilis [15] = test: Antibacterial activity against Bacillus subtilis at 100 ug/ml after 24 hrs by agar well diffusion method; conditions: read-out: DIZ
# Bacillus subtilis [16] = test: Antibacterial activity against Bacillus subtilis at 50 ug/ml after 24 hrs by agar well diffusion method; conditions: read-out: DIZ
# Staphylococcus aureus [17] = test: Antibacterial activity against Staphylococcus aureus ATCC 6538 at 500 ug/ml after 24 hrs by agar well diffusion method; conditions: ATCC 6538, 24 h, read-out: DIZ
# Staphylococcus aureus [18] = test: Antibacterial activity against Staphylococcus aureus ATCC 6538 at 300 ug/ml after 24 hrs by agar well diffusion method; conditions: ATCC 6538, 24 h, read-out: DIZ
# Staphylococcus aureus [19] = test: Antibacterial activity against Staphylococcus aureus ATCC 6538 at 200 ug/ml after 24 hrs by agar well diffusion method; conditions: ATCC 6538, 24 h, read-out: DIZ
# Staphylococcus aureus [20] = test: Antibacterial activity against Staphylococcus aureus ATCC 6538 at 100 ug/ml after 24 hrs by agar well diffusion method; conditions: ATCC 6538, 24 h, read-out: DIZ
# Escherichia coli [21] = test: Antibacterial activity against Escherichia coli ATCC 8739 at 300 ug/ml after 24 hrs by agar well diffusion method; conditions: ATCC 8739, 24 h, read-out: DIZ
# Escherichia coli [22] = test: Antibacterial activity against Escherichia coli ATCC 8739 at 200 ug/ml after 24 hrs by agar well diffusion method; conditions: ATCC 8739, 24 h, read-out: DIZ
# Escherichia coli [23] = test: Antibacterial activity against Escherichia coli ATCC 8739 at 100 ug/ml after 24 hrs by agar well diffusion method; conditions: ATCC 8739, 24 h, read-out: DIZ
# Escherichia coli [24] = test: Antibacterial activity against Escherichia coli ATCC 8739 at 50 ug/ml after 24 hrs by agar well diffusion method; conditions: ATCC 8739, 24 h, read-out: DIZ
# Klebsiella pneumoniae [25] = test: Antibacterial activity against Klebsiella pneumoniae at 500 ug/ml after 24 hrs by agar well diffusion method; conditions: read-out: DIZ
# Klebsiella pneumoniae [26] = test: Antibacterial activity against Klebsiella pneumoniae at 300 ug/ml after 24 hrs by agar well diffusion method; conditions: read-out: DIZ
# Klebsiella pneumoniae [27] = test: Antibacterial activity against Klebsiella pneumoniae at 200 ug/ml after 24 hrs by agar well diffusion method; conditions: read-out: DIZ
# Klebsiella pneumoniae [28] = test: Antibacterial activity against Klebsiella pneumoniae at 50 ug/ml after 24 hrs by agar well diffusion method; conditions: read-out: DIZ
# Escherichia coli [29] = test: Antibacterial activity against Escherichia coli ATCC 8739 at 500 ug/ml after 24 hrs by agar well diffusion method; conditions: ATCC 8739, 24 h, read-out: DIZ
# Klebsiella pneumoniae [30] = test: Antibacterial activity against Klebsiella pneumoniae at 100 ug/ml after 24 hrs by agar well diffusion method; conditions: read-out: DIZ
# Staphylococcus aureus [31] = test: Antibacterial activity against Staphylococcus aureus ATCC 6538 at 50 ug/ml after 24 hrs by agar well diffusion method; conditions: ATCC 6538, 24 h, read-out: DIZ
# Aspergillus flavus [32] = test: Antifungal activity against Aspergillus flavus at 50 ug/ml after 72 hrs by agar well diffusion method; conditions: read-out: DIZ
# Aspergillus flavus [33] = test: Antifungal activity against Aspergillus flavus at 100 ug/ml after 72 hrs by agar well diffusion method; conditions: read-out: DIZ
# Aspergillus flavus [34] = test: Antifungal activity against Aspergillus flavus after 72 hrs by agar well diffusion method
# Aspergillus niger [35] = test: Antifungal activity against Aspergillus niger after 72 hrs by agar well diffusion method
# Fusarium oxysporum [36] = test: Antifungal activity against Fusarium oxysporum after 72 hrs by agar well diffusion method
# Rhizoctonia solani [37] = test: Antifungal activity against Rhizoctonia solani after 72 hrs by agar well diffusion method
# Bacillus subtilis [38] = test: Antibacterial activity against Bacillus subtilis after 24 hrs by agar well diffusion method
# Staphylococcus aureus [39] = test: Antibacterial activity against Staphylococcus aureus ATCC 6538 after 24 hrs by agar well diffusion method; conditions: ATCC 6538, 24 h
# Escherichia coli [40] = test: Antibacterial activity against Escherichia coli ATCC 8739 after 24 hrs by agar well diffusion method; conditions: ATCC 8739, 24 h
# Klebsiella pneumoniae [41] = test: Antibacterial activity against Klebsiella pneumoniae after 24 hrs by agar well diffusion method
# Aspergillus flavus [42] = test: Antifungal activity against Aspergillus flavus at 500 ug/ml after 72 hrs by agar well diffusion method; conditions: read-out: DIZ
# Aspergillus flavus [43] = test: Antifungal activity against Aspergillus flavus at 300 ug/ml after 72 hrs by agar well diffusion method; conditions: read-out: DIZ
# Aspergillus flavus [44] = test: Antifungal activity against Aspergillus flavus at 200 ug/ml after 72 hrs by agar well diffusion method; conditions: read-out: DIZ
# Aspergillus niger [45] = test: Antifungal activity against Aspergillus niger at 500 ug/ml after 72 hrs by agar well diffusion method; conditions: read-out: DIZ
# Aspergillus niger [46] = test: Antifungal activity against Aspergillus niger at 300 ug/ml after 72 hrs by agar well diffusion method; conditions: read-out: DIZ
# Aspergillus niger [47] = test: Antifungal activity against Aspergillus niger at 200 ug/ml after 72 hrs by agar well diffusion method; conditions: read-out: DIZ
# Aspergillus niger [48] = test: Antifungal activity against Aspergillus niger at 100 ug/ml after 72 hrs by agar well diffusion method; conditions: read-out: DIZ
compound,measurement,setting,value
COc1ccc2c(c1)c(C=C1C(=O)OC(C)(C)OC1=O)cn2C,zone of inhibition at 50 µg/mL,Aspergillus niger [1],6 mm
same,zone of inhibition at 500 µg/mL,Fusarium oxysporum [2],29 mm
same,zone of inhibition at 300 µg/mL,Fusarium oxysporum [3],21 mm
same,zone of inhibition at 200 µg/mL,Fusarium oxysporum [4],16 mm
same,zone of inhibition at 100 µg/mL,Fusarium oxysporum [5],12 mm
same,zone of inhibition at 50 µg/mL,Fusarium oxysporum [6],7 mm
same,zone of inhibition at 500 µg/mL,Rhizoctonia solani [7],29 mm
same,zone of inhibition at 300 µg/mL,Rhizoctonia solani [8],21 mm
same,zone of inhibition at 200 µg/mL,Rhizoctonia solani [9],16 mm
same,zone of inhibition at 100 µg/mL,Rhizoctonia solani [10],12 mm
same,zone of inhibition at 50 µg/mL,Rhizoctonia solani [11],7 mm
same,zone of inhibition at 500 µg/mL,Bacillus subtilis [12],22 mm
same,zone of inhibition at 300 µg/mL,Bacillus subtilis [13],14 mm
same,zone of inhibition at 200 µg/mL,Bacillus subtilis [14],11 mm
same,zone of inhibition at 100 µg/mL,Bacillus subtilis [15],9 mm
same,zone of inhibition at 50 µg/mL,Bacillus subtilis [16],4 mm
same,zone of inhibition at 500 µg/mL,Staphylococcus aureus [17],26 mm
same,zone of inhibition at 300 µg/mL,Staphylococcus aureus [18],16 mm
same,zone of inhibition at 200 µg/mL,Staphylococcus aureus [19],13 mm
same,zone of inhibition at 100 µg/mL,Staphylococcus aureus [20],10 mm
same,zone of inhibition at 300 µg/mL,Escherichia coli [21],20 mm
same,zone of inhibition at 200 µg/mL,Escherichia coli [22],15 mm
same,zone of inhibition at 100 µg/mL,Escherichia coli [23],13 mm
same,zone of inhibition at 50 µg/mL,Escherichia coli [24],8 mm
same,zone of inhibition at 500 µg/mL,Klebsiella pneumoniae [25],32 mm
same,zone of inhibition at 300 µg/mL,Klebsiella pneumoniae [26],23 mm
same,zone of inhibition at 200 µg/mL,Klebsiella pneumoniae [27],18 mm
same,zone of inhibition at 50 µg/mL,Klebsiella pneumoniae [28],9 mm
same,zone of inhibition at 500 µg/mL,Escherichia coli [29],31 mm
same,zone of inhibition at 100 µg/mL,Klebsiella pneumoniae [30],14 mm
same,zone of inhibition at 50 µg/mL,Staphylococcus aureus [31],6 mm
same,zone of inhibition at 50 µg/mL,Aspergillus flavus [32],4 mm
same,zone of inhibition at 100 µg/mL,Aspergillus flavus [33],9 mm
same,MIC,Aspergillus flavus [34],40 µg/mL
same,MIC,Aspergillus niger [35],40 µg/mL
same,MIC,Fusarium oxysporum [36],35 µg/mL
same,MIC,Rhizoctonia solani [37],35 µg/mL
same,MIC,Bacillus subtilis [38],30 µg/mL
same,MIC,Staphylococcus aureus [39],25 µg/mL
same,MIC,Escherichia coli [40],15 µg/mL
same,MIC,Klebsiella pneumoniae [41],15 µg/mL
same,zone of inhibition at 500 µg/mL,Aspergillus flavus [42],23 mm
same,zone of inhibition at 300 µg/mL,Aspergillus flavus [43],15 mm
same,zone of inhibition at 200 µg/mL,Aspergillus flavus [44],12 mm
same,zone of inhibition at 500 µg/mL,Aspergillus niger [45],25 mm
same,zone of inhibition at 300 µg/mL,Aspergillus niger [46],18 mm
same,zone of inhibition at 200 µg/mL,Aspergillus niger [47],14 mm
same,zone of inhibition at 100 µg/mL,Aspergillus niger [48],10 mm
Cn1cc(C=C2C(=O)OC(C)(C)OC2=O)c2cc([N+](=O)[O-])ccc21,zone of inhibition at 50 µg/mL,Aspergillus niger [1],6 mm
same,zone of inhibition at 500 µg/mL,Fusarium oxysporum [2],29 mm
same,zone of inhibition at 300 µg/mL,Fusarium oxysporum [3],21 mm
same,zone of inhibition at 200 µg/mL,Fusarium oxysporum [4],16 mm
same,zone of inhibition at 100 µg/mL,Fusarium oxysporum [5],12 mm
same,zone of inhibition at 50 µg/mL,Fusarium oxysporum [6],7 mm
same,zone of inhibition at 500 µg/mL,Rhizoctonia solani [7],29 mm
same,zone of inhibition at 300 µg/mL,Rhizoctonia solani [8],21 mm
same,zone of inhibition at 200 µg/mL,Rhizoctonia solani [9],16 mm
same,zone of inhibition at 100 µg/mL,Rhizoctonia solani [10],12 mm
same,zone of inhibition at 50 µg/mL,Rhizoctonia solani [11],7 mm
same,zone of inhibition at 500 µg/mL,Bacillus subtilis [12],23 mm
same,zone of inhibition at 300 µg/mL,Bacillus subtilis [13],15 mm
same,zone of inhibition at 200 µg/mL,Bacillus subtilis [14],12 mm
same,zone of inhibition at 100 µg/mL,Bacillus subtilis [15],9 mm
same,zone of inhibition at 50 µg/mL,Bacillus subtilis [16],4 mm
same,zone of inhibition at 500 µg/mL,Staphylococcus aureus [17],25 mm
same,zone of inhibition at 300 µg/mL,Staphylococcus aureus [18],18 mm
same,zone of inhibition at 200 µg/mL,Staphylococcus aureus [19],14 mm
same,zone of inhibition at 100 µg/mL,Staphylococcus aureus [20],10 mm
same,zone of inhibition at 300 µg/mL,Escherichia coli [21],20 mm
same,zone of inhibition at 200 µg/mL,Escherichia coli [22],16 mm
same,zone of inhibition at 100 µg/mL,Escherichia coli [23],13 mm
same,zone of inhibition at 50 µg/mL,Escherichia coli [24],8 mm
same,zone of inhibition at 500 µg/mL,Klebsiella pneumoniae [25],31 mm
same,zone of inhibition at 300 µg/mL,Klebsiella pneumoniae [26],23 mm
same,zone of inhibition at 200 µg/mL,Klebsiella pneumoniae [27],18 mm
same,zone of inhibition at 50 µg/mL,Klebsiella pneumoniae [28],9 mm
same,zone of inhibition at 500 µg/mL,Escherichia coli [29],30 mm
same,zone of inhibition at 100 µg/mL,Klebsiella pneumoniae [30],14 mm
same,zone of inhibition at 50 µg/mL,Staphylococcus aureus [31],6 mm
same,zone of inhibition at 50 µg/mL,Aspergillus flavus [32],4 mm
same,zone of inhibition at 100 µg/mL,Aspergillus flavus [33],9 mm
same,MIC,Aspergillus flavus [34],40 µg/mL
same,MIC,Aspergillus niger [35],40 µg/mL
same,MIC,Fusarium oxysporum [36],35 µg/mL
same,MIC,Rhizoctonia solani [37],35 µg/mL
same,MIC,Bacillus subtilis [38],30 µg/mL
same,MIC,Staphylococcus aureus [39],25 µg/mL
same,MIC,Escherichia coli [40],15 µg/mL
same,MIC,Klebsiella pneumoniae [41],15 µg/mL
same,zone of inhibition at 500 µg/mL,Aspergillus flavus [42],23 mm
same,zone of inhibition at 300 µg/mL,Aspergillus flavus [43],15 mm
same,zone of inhibition at 200 µg/mL,Aspergillus flavus [44],12 mm
same,zone of inhibition at 500 µg/mL,Aspergillus niger [45],25 mm
same,zone of inhibition at 300 µg/mL,Aspergillus niger [46],18 mm
same,zone of inhibition at 200 µg/mL,Aspergillus niger [47],14 mm
same,zone of inhibition at 100 µg/mL,Aspergillus niger [48],10 mm
